# Where a name gives a salt, the structure may show the parent alone.
# T1: Bile salt export pump (Rattus norvegicus, UniProt O70127)
# T1 sequence (O70127 whole entry): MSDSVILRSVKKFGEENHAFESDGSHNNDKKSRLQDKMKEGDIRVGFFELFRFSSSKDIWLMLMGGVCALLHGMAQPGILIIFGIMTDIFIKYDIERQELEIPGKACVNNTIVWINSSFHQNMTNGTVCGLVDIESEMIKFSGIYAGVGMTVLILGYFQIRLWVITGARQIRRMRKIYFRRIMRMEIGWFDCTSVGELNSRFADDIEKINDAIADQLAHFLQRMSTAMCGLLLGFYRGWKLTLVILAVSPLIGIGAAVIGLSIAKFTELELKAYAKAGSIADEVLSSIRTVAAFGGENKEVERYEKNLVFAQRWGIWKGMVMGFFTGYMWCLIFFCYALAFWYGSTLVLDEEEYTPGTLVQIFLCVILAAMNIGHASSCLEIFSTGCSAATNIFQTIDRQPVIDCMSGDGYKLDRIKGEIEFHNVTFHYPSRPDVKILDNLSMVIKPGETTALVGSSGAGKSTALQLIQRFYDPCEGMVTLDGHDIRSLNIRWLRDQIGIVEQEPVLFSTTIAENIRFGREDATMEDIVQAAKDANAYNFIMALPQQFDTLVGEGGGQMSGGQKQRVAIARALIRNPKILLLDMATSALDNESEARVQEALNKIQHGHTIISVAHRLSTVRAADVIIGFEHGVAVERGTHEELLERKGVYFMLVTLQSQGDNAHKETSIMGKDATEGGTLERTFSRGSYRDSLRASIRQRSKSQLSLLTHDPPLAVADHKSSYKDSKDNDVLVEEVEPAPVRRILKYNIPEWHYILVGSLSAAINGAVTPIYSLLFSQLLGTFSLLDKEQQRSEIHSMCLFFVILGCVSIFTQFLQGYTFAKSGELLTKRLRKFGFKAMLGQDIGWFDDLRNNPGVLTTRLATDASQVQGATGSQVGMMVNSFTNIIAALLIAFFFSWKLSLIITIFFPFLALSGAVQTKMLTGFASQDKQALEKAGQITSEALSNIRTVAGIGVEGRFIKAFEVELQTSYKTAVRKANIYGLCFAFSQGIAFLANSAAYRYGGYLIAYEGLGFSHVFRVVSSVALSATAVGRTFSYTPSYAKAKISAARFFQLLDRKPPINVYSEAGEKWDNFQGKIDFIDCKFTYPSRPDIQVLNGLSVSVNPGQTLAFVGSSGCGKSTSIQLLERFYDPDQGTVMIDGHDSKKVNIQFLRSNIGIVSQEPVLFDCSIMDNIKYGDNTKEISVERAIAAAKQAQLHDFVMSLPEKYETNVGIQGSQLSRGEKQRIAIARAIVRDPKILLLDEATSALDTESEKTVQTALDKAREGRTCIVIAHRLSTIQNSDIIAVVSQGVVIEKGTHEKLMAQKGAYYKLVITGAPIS
# B1: ATP-binding cassette sub-family C member 2 (Rattus norvegicus) (protein)
# chain: MDKFCNSTFWDLSLLESPEADLPLCFEQTVLVWIPLGFLWLLAPWQLYSVYRSRTKRSSITKFYLAKQVFVVFLLILAAIDLSLALTEDTGQATVPPVRYTNPILYLCTWLLVLAVQHSRQWCVRKNSWFLSLFWILSVLCGVFQFQTLIRALLKDSKSNMAYSYLFFVSYGFQIVLLILTAFSGPSDSTQTPSVTASFLSSITFSWYDRTVLKGYKHPLTLEDVWDIDEGFKTRSVTSKFEAAMTKDLQKARQAFQRRLQKSQRKPEATLHGLNKKQSQSQDVLVLEEAKKKSEKTTKDYPKSWLIKSLFKTFHVVILKSFILKLIHDLLVFLNPQLLKLLIGFVKSSNSYVWFGYICAILMFAVTLIQSFCLQSYFQHCFVLGMCVRTTVMSSIYKKALTLSNLARKQYTIGETVNLMSVDSQKLMDATNYMQLVWSSVIQITLSIFFLWRELGPSILAGVGVMVLLIPVNGVLATKIRNIQVQNMKNKDKRLKIMNEILSGIKILKYFAWEPSFQEQVQGIRKKELKNLLRFGQLQSLLIFILQITPILVSVVTFSVYVLVDSANVLNAEKAFTSITLFNILRFPLSMLPMVTSSILQASVSVDRLERYLGGDDLDTSAIRRVSNFDKAVKFSEASFTWDPDLEATIQDVNLDIKPGQLVAVVGTVGSGKSSLVSAMLGEMENVHGHITIQGSTAYVPQQSWIQNGTIKDNILFGSEYNEKKYQQVLKACALLPDLEILPGGDMAEIGEKGINLSGGQKQRVSLARAAYQDADIYILDDPLSAVDAHVGKHIFNKVVGPNGLLAGKTRIFVTHGIHFLPQVDEIVVLGKGTILEKGSYRDLLDKKGVFARNWKTFMKHSGPEGEATVNNDSEAEDDDDGLIPTMEEIPEDAASLAMRRENSLRRTLSRSSRSSSRRGKSLKNSLKIKNVNVLKEKEKEVEGQKLIKKEFVETGKVKFSIYLKYLQAVGWWSILFIILFYGLNNVAFIGSNLWLSAWTSDSDNLNGTNNSSSHRDMRIGVFGALGLAQGICLLISTLWSIYACRNASKALHGQLLTNILRAPMRFFDTTPTGRIVNRFSGDISTVDDLLPQTLRSWMMCFFGIAGTLVMICMATPVFAIIIIPLSILYISVQVFYVATSRQLRRLDSVTKSPIYSHFSETVTGLPIIRAFEHQQRFLAWNEKQIDINQKCVFSWITSNRWLAIRLELVGNLVVFCSALLLVIYRKTLTGDVVGFVLSNALNITQTLNWLVRMTSEAETNIVAVERISEYINVENEAPWVTDKRPPADWPRHGEIQFNNYQVRYRPELDLVLKGITCNIKSGEKVGVVGRTGAGKSSLTNCLFRILESAGGQIIIDGIDVASIGLHDLRERLTIIPQDPILFSGSLRMNLDPFNKYSDEEVWRALELAHLRSFVSGLQLGLLSEVTEGGDNLSIGQRQLLCLGRAVLRKSKILVLDEATAAVDLETDSLIQTTIRKEFSQCTVITIAHRLHTIMDSDKIMVLDNGKIVEYGSPEELLSNRGSFYLMAKEAGIENVNHTEL
# Tests used:
# Bile salt export pump [1] = biological target: T1, Bile salt export pump; experiment: TP_TRANSPORTER: inhibition of Taurocholate uptake (Taurocholate: 1 uM) in membrane vesicles isolated from Bsep-expressing Sf9 cells; assay type: functional, cell membranes, Membrane vesicle
# Bile salt export pump [2] = biological target: T1, Bile salt export pump; experiment: TP_TRANSPORTER: inhibition of Taurocholate uptake (Taurocholate: 1 uM) in canalicular membrane vesicles from SD rat; assay type: functional, cell membranes, Sprague-Dawley, Canalicular membrane vesicle
# [3] = substrate: C[C@H](CCC(=O)NCCS(=O)(=O)O)C1CC[C@H]2[C@@H]3[C@H](O)C[C@@H]4C[C@H](OS(=O)(=O)O)CC[C@]4(C)[C@H]3CC[C@]12C; experiment: (§1) TP_TRANSPORTER: uptake in canalicular membrane vesicles from SD rat; assay type: functional, cell membranes, Srague-Dawley, Liver, Canalicular membrane vesicle
# [4] = substrate: [H][C@]12CC[C@]3([H])[C@]([H])(CC[C@]4(C)C([C@H](C)CCC(=O)NCCS(=O)(=O)O)CC[C@@]34[H])[C@@]1(C)CC[C@@H](OS(=O)(=O)O)C2; experiment: as §1; assay type: functional, cell membranes, Srague-Dawley, Liver, Canalicular membrane vesicle
# [5] = substrate: [H][C@]12CC[C@]3([H])[C@]([H])(CC[C@]4(C)C([C@H](C)CCC(=O)NCCS(=O)(=O)O)CC[C@@]34[H])[C@@]1(C)CC[C@@H](OS(=O)(=O)O)C2; experiment: TP_TRANSPORTER: uptake in membrane vesicles from Mrp2-expressing Sf9 cells; assay type: functional, cell membranes, Membrane vesicle
Molecule,IC50 (Bile salt export pump [1]) [µM],IC50 (Bile salt export pump [2]) [µM],Km [3] [µM],Km [4] [µM],Km [5] [µM]
C[C@H](CCC(=O)NCCS(=O)(=O)O)C1CC[C@H]2[C@@H]3CC[C@@H]4C[C@H](OS(=O)(=O)O)CC[C@]4(C)[C@H]3CC[C@]12C (some centres not stated),61.9,1.2,–,–,–
C[C@H](CCC(=O)NCCS(=O)(=O)O)C1CC[C@H]2[C@@H]3[C@H](O)C[C@@H]4C[C@H](OS(=O)(=O)O)CC[C@]4(C)[C@H]3CC[C@]12C (some centres not stated) [TAUROCHENODEOXYCHOLATE SULFATE],67.9,4.6,–,–,–
B1,–,–,8.8,1.5,3.9

# Reference: ChEMBL document CHEMBL2074553, “Characterization of bile acid transport mediated by multidrug resistance associated protein 2 and bile salt export pump” (Biochim Biophys Acta, 2001)
